These are literature values, as cited in US6797829B1, “Synthesis of a novel paramagnetic amino derivative (epm-5) for labelling chemical and biological macromolecules” (Conselho Nacional de Desenvolvimento Cientifico e …, priority 1999, dated 2004).

Where two headings read alike, the source gives them in different places.

Regarding `CC1(C)CC(N)(C(=O)O)CC(C)(C)N1[O]` [Toac, 2,2,6,6tetramethylpiperidine-1-oxyl-4-amine-4-carboxylic acid], the “pKa of the amine group” value (in free state) is 8 and the “pKa of the amine group” value (when bound to the N-terminal portion of a peptide chain) is “about 5.5”.
